According to patent US9335325B2, “Immunodominant Mycobacterium tuberculosis peptides from cell wall proteins for early diagnosis and immunization” (priority 2008, dated 2016):

Experiments:
Assay type in all cases: binding
[1] = tested on: antibodies in sera from TB patients and PPD+/PPD- healthy subjects; assay: ELISA of PE-PGRS51 overlapping peptides with human sera; conditions: for non-specific reactivity with sera from HIV+TB- subjects: 20 HIV+TB- subjects, positive/tested; for final sensitivity: percent of patients whose sera recognize the peptide: 90 sputum smear positive TB patients, positive 2/3 or 3/3 times, cut-off mean plus 4 SD; for Immunoreactive: PE-PGRS51 peptides, biotinylated, streptavidin plates, TB patient sera
[2] = tested on: antibodies in sera from HIV-TB+ patients and PPD+/PPD- healthy controls; assay: ELISA of LipC overlapping peptides with human sera; conditions: biotinylated, streptavidin plates, patient sera
[3] = tested on: antibodies in sera from HIV-TB+ patients and PPD+/PPD- healthy controls; assay: ELISA of PTRP overlapping peptides with human sera; conditions: for Immunoreactive: PTRP peptides, biotinylated, streptavidin plates, TB patient sera; for percent of HIV-TB+ patient sera positive with the peptide in 2/3 or 3/3 tests: 60 HIV-TB+ patients, cut-off mean OD of PPD+/PPD- plus 3 SD, retested twice
[4] = tested on: anti-LipC antibodies in sera from TB patients; assay: Western blot of His-tagged LipC probed with human sera; conditions: for sera showing anti-LipC antibodies: positive/tested

Row | Molecule | Immunoreactive [1] | Immunoreactive [3] | further results
1 | AGAGGNGAAGGDGGANGGAG [PG-31] | ++ (++ indicates that the peptides were recognized by 40% or more TB patient sera) |  | non-specific reactivity with sera from HIV+TB- subjects [1]: no cross-reactivity; percent of HIV+TB+ patient sera recognizing the peptide (sensitivity) ([1]; 30 smear positive HIV+TB+ patients): 57%; final sensitivity: percent of patients whose sera recognize the peptide [1]: 52%
2 | AHAIALFLNQVHRSRAQFAK [Lp-39] |  |  | Immunoreactive [2]: ++ (++ immunodominant based on being recognized by 45% or more patient sera)
3 | ARPADYMLALSVAGGSLPVV [Lp-3] |  |  | Immunoreactive [2]: ++ (++ immunodominant based on being recognized by 45% or more patient sera)
4 | DATTSLPRAEAGQSGSEGEQ [PT-23] |  | ++ (++ indicates that the peptides were recognized by 40% or more TB patient sera) | 
5 | DGGLLFGNGGAGYNSAATPG [PG-14] | ++ (++ indicates that the peptides were recognized by 40% or more TB patient sera) |  | 
6 | DRSLAGENHRLVATRLCWPD [PT-6] |  | ++ (++ indicates that the peptides were recognized by 40% or more TB patient sera) | 
7 | FPGWQPGMPTIPTAPPTTPV [PT-41] |  | ++ (++ indicates that the peptides were recognized by 40% or more TB patient sera) | percent of HIV-TB+ patient sera positive with the peptide in 2/3 or 3/3 tests [3]: 55%
8 | GGTGGDGGDGGHAGTGGRGG [PG-51] | ++ (++ indicates that the peptides were recognized by 40% or more TB patient sera) |  | 
9 | GGTHGTPGSGNAGGTGTGNA [PG-55] | ++ (++ indicates that the peptides were recognized by 40% or more TB patient sera) |  | final sensitivity: percent of patients whose sera recognize the peptide [1]: 49%
10 | GHAGTGGRGGLLAGQHANSG [PG-52] | ++ (++ indicates that the peptides were recognized by 40% or more TB patient sera) |  | 
11 | GNGGAGGDANGNPANTSIAN [PG-29] | ++ (++ indicates that the peptides were recognized by 40% or more TB patient sera) |  | 
12 | GSRDCVIPVEQARSFVERLR [Lp-34] |  |  | Immunoreactive [2]: ++ (++ immunodominant based on being recognized by 45% or more patient sera)
13 | GTPGGAGVNGGNGGAGGDAN [PG-28] | ++ (++ indicates that the peptides were recognized by 40% or more TB patient sera) |  | 
14 | IAVAGCSAGGHLSALAGLTA [Lp-24] |  |  | Immunoreactive [2]: ++ (++ immunodominant based on being recognized by 45% or more patient sera)
15 | LAAAASDVANIGSALSAANA [PG-2] | ++ (++ indicates that the peptides were recognized by 40% or more TB patient sera) |  | non-specific reactivity with sera from HIV+TB- subjects [1]: 2/20; final sensitivity: percent of patients whose sera recognize the peptide [1]: 48%
16 | LLAGQHANSGNGGGGGTGGA [PG-53] | ++ (++ indicates that the peptides were recognized by 40% or more TB patient sera) |  | 
17 | LQDSGVHDVAVISEAQAATA [PT-9] |  | ++ (++ indicates that the peptides were recognized by 40% or more TB patient sera) | percent of HIV-TB+ patient sera positive with the peptide in 2/3 or 3/3 tests [3]: 58%

Row | Molecule | Immunoreactive [1] | Immunoreactive [3] | further results
18 | LSVVGDPDAPPTMVAVAPVA [PT-13] |  | ++ (++ indicates that the peptides were recognized by 40% or more TB patient sera) | percent of HIV-TB+ patient sera positive with the peptide in 2/3 or 3/3 tests [3]: 53%
19 | LTGNDGVNPAPVTNPALNGA [PG-24] | ++ (++ indicates that the peptides were recognized by 40% or more TB patient sera) |  | 
20 | MAGGNGGNAGLIGNGGTGGS [PG-16] | ++ (++ indicates that the peptides were recognized by 40% or more TB patient sera) |  | 
21 | MDVALGVAVTDRVARLALVD [PT-1] |  | ++ (++ indicates that the peptides were recognized by 40% or more TB patient sera) | 
22 | NDPQYQAELPEGSDTSVDAV [Lp-26] |  |  | Immunoreactive [2]: ++ (++ immunodominant based on being recognized by 45% or more patient sera)
23 | NGGAGGDAGHGGTGGDGGDG [PG-50] | ++ (++ indicates that the peptides were recognized by 40% or more TB patient sera) |  | non-specific reactivity with sera from HIV+TB- subjects [1]: 1/20; final sensitivity: percent of patients whose sera recognize the peptide [1]: 50%
24 | PIPVPIIIPPFPGWQPGMPT [PT-40] |  | ++ (++ indicates that the peptides were recognized by 40% or more TB patient sera) | percent of HIV-TB+ patient sera positive with the peptide in 2/3 or 3/3 tests [3]: 52%
25 | PTMVAVAPVAGADATSTVDT [PT-14] |  | ++ (++ indicates that the peptides were recognized by 40% or more TB patient sera) | 
26 | QQAPVPPPPPDDPTAGFQGG [PT-34] |  | ++ (++ indicates that the peptides were recognized by 40% or more TB patient sera) | 
27 | QTPDDPTFALARGAAMAAGA [PT-20] |  | ++ (++ indicates that the peptides were recognized by 40% or more TB patient sera) | 
28 | SAAPGTVIDQFVLDVAEHPV [PT-3] |  | ++ (++ indicates that the peptides were recognized by 40% or more TB patient sera) | 
29 | SVAGGSLPVVGKHLKPLGGV [Lp-4] |  |  | Immunoreactive [2]: ++ (++ immunodominant based on being recognized by 45% or more patient sera)
30 | TAIGVWGARHASDFLSATAK [Lp-6] |  |  | Immunoreactive [2]: ++ (++ immunodominant based on being recognized by 45% or more patient sera)
31 | TGAGGSYALTEAANVQQNLL [PG-9] | ++ (++ indicates that the peptides were recognized by 40% or more TB patient sera) |  | 
32 | TTPPTTPVTTPPTTPPTTPV [PT-45] |  | ++ (++ indicates that the peptides were recognized by 40% or more TB patient sera) | 
33 | LipC: purified His-tagged recombinant Mtb LipC protein (SEQ ID NO:6), probable esterase (protein, His tag; Mycbacterium tuberculosis Strain H37Rv) MNQRRAAGSTGVAYIRWLLRARPADYMLALSVAGGSLPVVGKHLKPLGGVTAIGVWGARHASDFLSATAKDLLTPGINEVRRRDRASTQEVSVAALRGIVSPDDLAVEWPAPERTPPVCGALRHRRYVHRRRVLYGDDPAQLLDVWRRKDMPTKPAPVLIFVPGGAWVHGSRAIQGYAVLSRLAAQGWVCLSIDYRVAPHHRWPRHILDVKTAIAWARANVDKFGGDRNFIAVAGCSAGGHLSALAGLTANDPQYQAELPEGSDTSVDAVVGIYGRYDWEDRSTPERARFVDFLERVVVQRTIDRHPEVFRDASPIQRVTRNAPPFLVIHGSRDCVIPVEQARSFVERLRAVSRSQVGYLELPGAGHGFDLLDGARTGPTAHAIALFLNQVHRSRAQFAKEVI |  |  | sera showing anti-LipC antibodies ([4]; HIV+TB+ patients): 6/6; reactivity of control sera ([4]; HIV+TB-, HIV-PPD+, HIV-PPD- control sera): background cross-reactivity; sera showing anti-LipC antibodies ([4]; HIV-TB+ patients): 5/6; sera showing anti-LipC antibodies ([4]; TB patients (HIV-TB+ and HIV+TB+)): 11/12
